Experiment: Henry solubility constant Hcp at 298.15 K (mol/(m3 Pa))
Settings: reference: Ryu and Park (1999)

Row | Compound | Henry solubility constant Hcp
1 | Cc1ccc(C)cc1 [1,4-dimethylbenzene] | 0.0014
2 | c1ccccc1 [benzene] | 0.0017
3 | CCCCc1ccccc1 [butylbenzene] | 0.00074
4 | Clc1ccccc1 [chlorobenzene] | 0.0019
5 | ClCCl [dichloromethane] | 0.0041
6 | CCc1ccccc1 [ethylbenzene] | 0.0011
7 | CCCCCCC [heptane] | 4.5e-06
8 | CCCCCC [hexane] | 6.1e-06
9 | Cc1ccccc1 [methylbenzene] | 0.0015
10 | CCCCCCCCC [nonane] | 2.2e-06
11 | CCCCCCCC [octane] | 3.4e-06
12 | CCCCCc1ccccc1 [pentylbenzene] | 0.00061
13 | ClC(Cl)=C(Cl)Cl [tetrachloroethene] | 0.00053
14 | ClC(Cl)(Cl)Cl [tetrachloromethane] | 0.00038
15 | ClC=C(Cl)Cl [trichloroethene] | 0.00095

Source: Sander's compilation of Henry's law constants (doi:10.1016/s0378-3812(99)00193-4)
